The values below come from patent US11999727B2 (Tango Therapeutics, Inc., priority 2020, dated 2024).

Where two headings read alike, the source gives them in different places.

For assay [1], the system named is HAP1 MTAP-deleted cell line. The assay is described as follows: Viability assay, MTAP-deleted cell line. Format: cell-based. The following applies: read-out: HAP1 MTAP deleted viability. An excerpt: Table 1 additionally indicates IC50 values in a viability assay for the MTAP-deleted cell line (column 10), indicating the effect of treatment with compound on cell survival.

Assay [2] addresses T1, PRMT5 (Homo sapiens, UniProt O14744).
T1 construct: purchased Viva (custom protein)
Nature of the assay: PRMT5 biochemical IC50 assay with MTA as cofactor. The note with it: PRMT5, MTA as cofactor; read-out: MTA IC50.

Assay [3] concerns the target T1, PRMT5. Nature of the assay: PRMT5 biochemical IC50 assay with SAM as cofactor. The following applies: PRMT5, SAM as cofactor; read-out: SAM IC50.
In assay [4] the target is T1, PRMT5. The assay is described as follows: PRMT5 biochemical IC50 assay with no cofactor. The following applies: PRMT5, no cofactor. An excerpt:
Table 1 indicates IC50 values (μM) against PRMT5 for exemplary compounds in the presence of SAM as cofactor, with no cofactor, and with MTA as cofactor, respectively (columns 4-6). […] Ki values can be calculated from the IC50 values as described in the Examples section. As detailed in the Examples section, for the assay performed in the presence of SAM, IC50=Ki×1.5 (Ki=IC50/1.5).

Setting [5] is: Homo sapiens, HAP1, viability assay, MTAP-deleted cell line.
The mark [6] stands for this setting: read-out: No Cofactor/ rel IC50.

T1 sequence (O14744 whole entry): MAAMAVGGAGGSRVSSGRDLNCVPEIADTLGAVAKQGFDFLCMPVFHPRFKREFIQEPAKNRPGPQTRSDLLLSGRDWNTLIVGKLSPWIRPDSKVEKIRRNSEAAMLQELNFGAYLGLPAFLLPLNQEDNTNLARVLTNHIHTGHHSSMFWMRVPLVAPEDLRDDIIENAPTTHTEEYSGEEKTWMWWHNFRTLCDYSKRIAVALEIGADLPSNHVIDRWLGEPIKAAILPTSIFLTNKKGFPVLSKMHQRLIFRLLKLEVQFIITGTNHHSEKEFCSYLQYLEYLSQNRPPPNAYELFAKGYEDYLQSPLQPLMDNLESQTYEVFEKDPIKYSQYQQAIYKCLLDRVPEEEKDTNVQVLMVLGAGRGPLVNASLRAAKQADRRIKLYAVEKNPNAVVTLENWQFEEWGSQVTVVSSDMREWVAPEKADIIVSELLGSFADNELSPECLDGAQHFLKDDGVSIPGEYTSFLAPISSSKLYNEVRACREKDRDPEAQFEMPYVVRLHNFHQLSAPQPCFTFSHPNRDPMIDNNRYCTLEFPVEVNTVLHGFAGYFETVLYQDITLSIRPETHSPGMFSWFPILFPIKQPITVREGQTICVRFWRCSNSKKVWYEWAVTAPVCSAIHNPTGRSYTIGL
T1 sequence (Q9BQA1 whole entry partner): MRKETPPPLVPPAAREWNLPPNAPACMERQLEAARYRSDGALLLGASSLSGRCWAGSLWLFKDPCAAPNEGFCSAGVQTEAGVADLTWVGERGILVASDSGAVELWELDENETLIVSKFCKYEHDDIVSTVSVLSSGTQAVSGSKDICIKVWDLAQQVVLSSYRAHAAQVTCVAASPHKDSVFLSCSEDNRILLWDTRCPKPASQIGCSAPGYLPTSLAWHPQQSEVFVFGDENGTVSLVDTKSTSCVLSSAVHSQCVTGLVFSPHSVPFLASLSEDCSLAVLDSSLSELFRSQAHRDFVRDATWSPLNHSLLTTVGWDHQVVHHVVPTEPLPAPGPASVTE

Consider `CNS(=O)(=O)c1ccc([C@@H]2CC[C@@H](C)CN2C(=O)C(=O)Nc2cncc(C(N)=O)c2)cc1` (single isomer, unassigned) [Compound 723], for which the IC50 in assay [1] (Homo sapiens, HAP1, viability assay, HAP1 MTAP-deleted) is greater than 10000 nM; on PRMT5 [2] it was greater than 500 nM; on PRMT5 [3], greater than 500 nM; on PRMT5 [4] (read-out: No Cofactor/rel IC50), greater than 500 nM.
For the molecule `CC(=O)Nc1ccc([C@H]2CC[C@H](C)CN2C(=O)C(=O)Nc2cncc(C(N)=O)c2)cc1` (single isomer, unassigned) [Compound 452], the IC50 in assay [1] (setting [5]) is greater than 10000 nM; at PRMT5 [2], greater than 500 nM; at PRMT5 [3], greater than 500 nM; on PRMT5 [4] (read-out: No Cofactor/rel IC50) it was greater than 500 nM.
As for `C[C@H]1CC[C@H](c2ccc(NCC(F)(F)F)cc2)N(C(=O)C(=O)Nc2cncc(C(N)=O)c2)C1` (single isomer, unassigned) [Compound 456], the IC50 was greater than 10000 nM in assay [1] (setting [5]), greater than 500 nM on PRMT5 [2], greater than 500 nM on PRMT5 [3] and greater than 500 nM at PRMT5 [4] (read-out: No Cofactor/rel IC50).
`Cn1nccc1C1CCCCN1C(=O)C(=O)Nc1cncc(C(N)=O)c1` (single isomer, unassigned) [Compound 59]: the IC50 in assay [1] (setting [5]) was greater than 10000 nM; on PRMT5 [2], 50 to 500 nM; on PRMT5 [3] it was greater than 500 nM; at PRMT5 [4] (setting [6]), greater than 500 nM.
Take `Cc1cc(NC(=O)C(=O)N2C[C@H](C)CC[C@H]2c2ccc(S(C)(=O)=O)cc2)cnc1N` (single isomer, unassigned) [Compound 938]: the IC50 in assay [1] (setting [5]) is greater than 10000 nM; on PRMT5 [2] it was greater than 500 nM; on PRMT5 [3], greater than 500 nM; at PRMT5 [4] (read-out: No Cofactor/rel IC50), greater than 500 nM.
`C[C@@H]1CC[C@@H](c2ccc3sc(N)nc3c2)N(C(=O)C(=O)Nc2cncc(C(N)=O)c2)C1` (single isomer, unassigned) [Compound 1001]: the IC50 in assay [1] (setting [5]) was greater than 10000 nM; on PRMT5 [2], greater than 500 nM; on PRMT5 [3], greater than 500 nM; at PRMT5 [4] (read-out: No Cofactor/rel IC50), greater than 500 nM.
Regarding `C[C@H]1CC[C@H](c2cc(F)c3[nH]ncc3c2)N(C(=O)C(=O)Nc2cncc(C(N)=O)c2)C1` (single isomer, unassigned) [Compound 680], the IC50 in assay [1] (Homo sapiens, HAP1, viability IC50, MTAP-deleted cell line) was greater than 10000 nM; at PRMT5 [2], greater than 500 nM; at PRMT5 [3], greater than 500 nM; on PRMT5 [4] (read-out: No Cofactor/rel IC50), greater than 500 nM.
As for `CCc1cc(NC(=O)C(=O)N2C[C@H](C)CC[C@H]2c2ccc3sc(N)nc3c2)cnc1N` (single isomer, unassigned) [Compound 984], the IC50 in assay [1] (setting [5]) was greater than 10000 nM; on PRMT5 [2] it was greater than 500 nM; on PRMT5 [3], greater than 500 nM; at PRMT5 [4] (read-out: No Cofactor/rel IC50), greater than 500 nM.
`Cc1cc(NC(=O)C(=O)N2C[C@@H](C)CC[C@@H]2c2cccc3c2CCN3)cnc1N` (single isomer, unassigned) [Compound 957]: the IC50 in assay [1] (setting [5]) was greater than 10000 nM; at PRMT5 [2], greater than 500 nM; on PRMT5 [3] it was greater than 500 nM; at PRMT5 [4] (read-out: No Cofactor/rel IC50), greater than 500 nM.
On to `Cc1cc(NC(=O)C(=O)N2C[C@H](C)CC[C@H]2c2ccc3[nH]c(N)nc3c2)cnc1N` (racemic) [Compound 990], for which the IC50 was 1000 to 10000 nM in assay [1] (setting [5]), less than 50 nM on PRMT5 [2], 50 to 500 nM at PRMT5 [3] and 50 to 500 nM at PRMT5 [4] (read-out: No Cofactor/rel IC50).
`COc1ncc(NC(=O)C(=O)N2C[C@H](C)CC[C@@H]2C2CCCC2)cc1C(N)=O` (single isomer, unassigned) [Compound 312]: the IC50 in assay [1] (setting [5]) was greater than 10000 nM; at PRMT5 [2], 50 to 500 nM; on PRMT5 [3] it was 50 to 500 nM; on PRMT5 [4] (read-out: No Cofactor/rel IC50) it was greater than 500 nM.
Consider `COc1ncc(NC(=O)C(=O)N2CCCCC2C2CCCC2)cc1C(N)=O` (single isomer, unassigned) [Compound 289, 5-(2-(2-cyclopentylpiperidin-1-yl)-2-oxoacetamido)-2-methoxynicotinamide], for which the IC50 in assay [1] (viability assay, MTAP-deleted cell line) is greater than 10000 nM; at PRMT5 [2], greater than 500 nM; at PRMT5 [3], greater than 500 nM; on PRMT5 [4] (read-out: No Cofactor/rel IC50), greater than 500 nM.
With `C[C@@H]1CC[C@@H](c2cc(F)cc(F)c2)N(C(=O)C(=O)Nc2cncc(C(N)=O)c2)C1` (racemic) [Compound 416, rac-5-{2-[(2R,5S)-2-(3,5-Difluorophenyl)-5-methylpiperidin-1-yl]-2-oxoacetamido}pyridine-3-carboxamide], the IC50 lay in the range of 1000 to 10000 nM in assay [1] (setting [5]), 50 to 500 nM on PRMT5 [2], 50 to 500 nM at PRMT5 [3] and 50 to 500 nM at PRMT5 [4] (read-out: No Cofactor/rel IC50).
As for `C[C@@H]1C[C@@H](C)[C@@H](c2ccccc2)N(C(=O)C(=O)Nc2cncc(C(N)=O)c2)C1` (single isomer, unassigned) [Compound 286, 5-(2-(3,5-dimethyl-2-phenylpiperidin-1-yl)-2-oxoacetamido)nicotinamide], the IC50 at PRMT5 [2], on PRMT5 [3] and on PRMT5 [4] (read-out: No Cofactor/rel IC50) was greater than 500 nM throughout.
Take `Cc1cc(NC(=O)C(=O)N2C[C@H](C)[C@@H](C)C[C@@H]2c2ccccc2)cnc1N` (single isomer, unassigned) [Compound 305]: the IC50 at PRMT5 [2], on PRMT5 [3] and on PRMT5 [4] (read-out: No Cofactor/rel IC50) was greater than 500 nM in each case.
With `Cc1cc(NC(=O)C(=O)N2C[C@@H](C)CC[C@@H]2c2cccnc2)cnc1N` (single isomer, unassigned) [Compound 309], the IC50 on PRMT5 [2], on PRMT5 [3] and on PRMT5 [4] (read-out: No Cofactor/rel IC50) was greater than 500 nM each time.
Turning to `C[C@@H]1CC[C@H](C2CCCCC2)N(C(=O)C(=O)Nc2cncc(C(N)=O)c2)C1` (single isomer, unassigned) [Compound 127], the IC50 at PRMT5 [2], at PRMT5 [3] and at PRMT5 [4] (setting [6]) was greater than 500 nM each time.
Take `C[C@@H]1CC[C@@H](c2ccc(C(F)(F)F)c(Cl)c2)N(C(=O)C(=O)Nc2cncc(C(N)=O)c2)C1` (single isomer, unassigned) [Compound 647]: the IC50 at PRMT5 [2], on PRMT5 [3] and at PRMT5 [4] (read-out: No Cofactor/rel IC50) was greater than 500 nM each time.
For the molecule `Cc1cncc(NC(=O)C(=O)N2CC(C)CC[C@@H]2c2cccc(F)c2)c1` (single isomer, unassigned) [Compound 84], the IC50 on PRMT5 [2], at PRMT5 [3] and on PRMT5 [4] (setting [6]) was greater than 500 nM each time.
Turning to `Cc1cc(NC(=O)C(=O)N2C[C@H](C)CC[C@H]2c2ccc3c(c2)C(=O)NC3)cnc1N` (single isomer, unassigned) [Compound 656], the IC50 on PRMT5 [2], on PRMT5 [3] and at PRMT5 [4] (read-out: No Cofactor/rel IC50) was greater than 500 nM throughout.
In the case of `Cc1cc(NC(=O)C(=O)N2C[C@@H](C)CC[C@@H]2C2CCCCC2)cnc1N` (single isomer, unassigned) [Compound 152], the IC50 on PRMT5 [2], at PRMT5 [3] and at PRMT5 [4] (setting [6]) was greater than 500 nM throughout.
Regarding `Cc1ccc([C@H]2CC[C@H](C)CN2C(=O)C(=O)Nc2cncc(C)c2)cc1` (single isomer, unassigned) [Compound 12], the IC50 on PRMT5 [2], on PRMT5 [3] and at PRMT5 [4] (setting [6]) was greater than 500 nM each time.
With `COc1ncc(NC(=O)C(=O)N2C[C@H](C)CC[C@H]2C2CCCCC2)cc1C(N)=O` (single isomer, unassigned) [Compound 370], the IC50 at PRMT5 [2], on PRMT5 [3] and at PRMT5 [4] (read-out: No Cofactor/rel IC50) was greater than 500 nM throughout.
Take `C[C@@H]1CC[C@@H](C2CCCCC2)N(C(=O)C(=O)Nc2cncc(C(N)=O)c2)C1` (single isomer, unassigned) [Compound 130]: the IC50 at PRMT5 [2], at PRMT5 [3] and on PRMT5 [4] (setting [6]) was greater than 500 nM throughout.
